Test results taken from ChEMBL document CHEMBL3813672, “Discovery of anti-cancer activity for benzo[1,2,4]triazin-7-ones: Very strong correlation to pleurotin and thioredoxin reductase inhibition” (Bioorg Med Chem, 2016).

Key:
[1] = Growth inhibition of human HL-60(TB) cells assessed as cell growth at 10 uM incubated for 48 hrs by sulforhodamine B assay relative to control; type: functional; details: HL-60, 48 h, read-out: Activity
K562 = assay: Growth inhibition of human K562 cells assessed as cell growth at 10 uM incubated for 48 hrs by sulforhodamine B assay relative to control; type: functional; details: K562, 48 h, read-out: Activity
[2] = Growth inhibition of human MOLT4 cells assessed as cell growth at 10 uM incubated for 48 hrs by sulforhodamine B assay relative to control; type: functional; details: MOLT-4, 48 h, read-out: Activity
SR = assay: Growth inhibition of human SR cells assessed as cell growth at 10 uM incubated for 48 hrs by sulforhodamine B assay relative to control; type: functional; details: read-out: Activity
A549 = assay: Growth inhibition of human A549/ATCC cells assessed as cell growth at 10 uM incubated for 48 hrs by sulforhodamine B assay relative to control; type: functional; details: A549, 48 h, read-out: Activity
[3] = Growth inhibition of human HOP62 cells assessed as cell growth at 10 uM incubated for 48 hrs by sulforhodamine B assay relative to control; type: functional; details: HOP-62, 48 h, read-out: Activity
NCI-H23 = assay: Growth inhibition of human NCI-H23 cells assessed as cell growth at 10 uM incubated for 48 hrs by sulforhodamine B assay relative to control; type: functional; details: NCI-H23, 48 h, read-out: Activity
NCI-H322M = assay: Growth inhibition of human NCI-H322M cells assessed as cell growth at 10 uM incubated for 48 hrs by sulforhodamine B assay relative to control; type: functional; details: read-out: Activity
[4] = Growth inhibition of human HCT15 cells assessed as cell growth at 10 uM incubated for 48 hrs by sulforhodamine B assay relative to control; type: functional; details: HCT-15, 48 h, read-out: Activity
HT-29 = assay: Growth inhibition of human HT-29 cells assessed as cell growth at 10 uM incubated for 48 hrs by sulforhodamine B assay relative to control; type: functional; details: HT-29, 48 h, read-out: Activity
[5] = Growth inhibition of human SW620 cells assessed as cell growth at 10 uM incubated for 48 hrs by sulforhodamine B assay relative to control; type: functional; details: SW-620, 48 h, read-out: Activity
[6] = Cytotoxicity against human DU145 cells assessed as reduction in cell viability after 72 hrs by MTT assay; type: functional, cell-based; details: DU-145, 72 h
MCF7 = assay: Cytotoxicity against human MCF7 cells assessed as reduction in cell viability after 72 hrs by MTT assay; type: functional, cell-based; details: MCF7, 72 h
[7] = Quasi-reversible one electron redox potential in dichloromethane containing 0.1 M TBAP assessed as assessed as redox potential during -1/-2 redox transition at 2 mmol measured at 100 mV/s in presence of Fc/Fc by cyclic voltammetry; type: physicochemical
[8] = Growth inhibition of human SF268 cells assessed as cell growth at 10 uM incubated for 48 hrs by sulforhodamine B assay relative to control; type: functional; details: SF-268, 48 h, read-out: Activity
[9] = Growth inhibition of human SNB75 cells assessed as cell growth at 10 uM incubated for 48 hrs by sulforhodamine B assay relative to control; type: functional; details: SNB-75, 48 h, read-out: Activity
U-251 = assay: Growth inhibition of human U251 cells assessed as cell growth at 10 uM incubated for 48 hrs by sulforhodamine B assay relative to control; type: functional; details: U-251, 48 h, read-out: Activity
Malme-3M = assay: Growth inhibition of human MALME-3M cells assessed as cell growth at 10 uM incubated for 48 hrs by sulforhodamine B assay relative to control; type: functional; details: read-out: Activity
SK-MEL-2 = assay: Growth inhibition of human SK-MEL-2 cells assessed as cell growth at 10 uM incubated for 48 hrs by sulforhodamine B assay relative to control; type: functional; details: SK-MEL-2, 48 h, read-out: Activity
SK-MEL-28 = assay: Growth inhibition of human SK-MEL-28 cells assessed as cell growth at 10 uM incubated for 48 hrs by sulforhodamine B assay relative to control; type: functional; details: SK-MEL-28, 48 h, read-out: Activity
SK-MEL-5 = assay: Growth inhibition of human SK-MEL-5 cells assessed as cell growth at 10 uM incubated for 48 hrs by sulforhodamine B assay relative to control; type: functional; details: SK-MEL-5, 48 h, read-out: Activity
[10] = Growth inhibition of human UACC62 cells assessed as cell growth at 10 uM incubated for 48 hrs by sulforhodamine B assay relative to control; type: functional; details: UACC-62, 48 h, read-out: Activity
[11] = Growth inhibition of human IGROV1 cells assessed as cell growth at 10 uM incubated for 48 hrs by sulforhodamine B assay relative to control; type: functional; details: IGROV-1, 48 h, read-out: Activity
[12] = Growth inhibition of human OVCAR3 cells assessed as cell growth at 10 uM incubated for 48 hrs by sulforhodamine B assay relative to control; type: functional; details: OVCAR-3, 48 h, read-out: Activity
NCI/ADR-RES = assay: Growth inhibition of human NCI/ADR-RES cells assessed as cell growth at 10 uM incubated for 48 hrs by sulforhodamine B assay relative to control; type: functional; details: read-out: Activity
A498 = assay: Growth inhibition of human A498 cells assessed as cell growth at 10 uM incubated for 48 hrs by sulforhodamine B assay relative to control; type: functional; details: A498, 48 h, read-out: Activity
MDA-MB-231 = assay: Growth inhibition of human MDA-MB-231/ATCC cells assessed as cell growth at 10 uM incubated for 48 hrs by sulforhodamine B assay relative to control; type: functional; details: MDA-MB-231, 48 h, read-out: Activity
[13] = Growth inhibition of human Hs 578T cells assessed as cell growth at 10 uM incubated for 48 hrs by sulforhodamine B assay relative to control; type: functional; details: read-out: Activity
[14] = Growth inhibition of human BT549 cells assessed as cell growth at 10 uM incubated for 48 hrs by sulforhodamine B assay relative to control; type: functional; details: BT-549, 48 h, read-out: Activity
ACHN [15] = assay: Growth inhibition of human ACHN cells assessed as cell growth at 10 uM incubated for 48 hrs by sulforhodamine B assay relative to control; type: functional; details: read-out: Activity
SN12C = assay: Growth inhibition of human SN12C cells assessed as cell growth at 10 uM incubated for 48 hrs by sulforhodamine B assay relative to control; type: functional; details: read-out: Activity
ACHN [16] = assay: Growth inhibition of human ACHN cells incubated for 48 hrs by sulforhodamine B assay; type: functional
[17] = Growth inhibition of human Hs 578T cells incubated for 48 hrs by sulforhodamine B assay; type: functional
[18] = Uncompetitive inhibition of rat liver thioredoxin reductase using DTNB as substrate measured for 50 mins at 5 mins intervals in presence of NADPH by Lineweaver-Burk plot analysis
[19] = Growth inhibition of human HCC2998 cells incubated for 48 hrs by sulforhodamine B assay; type: functional; details: HCC 2998, 48 h
[20] = read-out: pLC50 (the source's name) (converted)

With O=c1ccc2nc(-c3ccccc3)nn(-c3ccccc3)c-2c1 the growth at 10 µM [1] was -45.5%, the growth at 10 µM (K562) was -39% and the growth at 10 µM [2] was -37.6%. It also gave a growth at 10 µM (SR) of -20.2%, a growth at 10 µM (A549) of 73.6% and a growth at 10 µM [3] of 69.5%. For the same compound, the growth at 10 µM (NCI-H23) was 54.4%, the growth at 10 µM (NCI-H322M) was 66.2% and the growth at 10 µM [4] was -75.9%. The growth at 10 µM (HT-29) was -53.5%, the growth at 10 µM [5] was -60.5% and the IC50 [6] was 230 nM. The IC50 (MCF7) was 810 nM, the Activity [7] was -1.75 V and the growth at 10 µM [8] was 70.5%. It also gave a growth at 10 µM [9] of 93.2%, a growth at 10 µM (U-251) of 66.2% and a growth at 10 µM (Malme-3M) of -92.5%. It also gave a growth at 10 µM (SK-MEL-2) of 44.6%, a growth at 10 µM (SK-MEL-28) of 26.4% and a growth at 10 µM (SK-MEL-5) of 19.5%. The growth at 10 µM [10] was 30.1%, the growth at 10 µM [11] was 2.56% and the growth at 10 µM [12] was -96.2%. The growth at 10 µM (NCI/ADR-RES) was 96.2%, the growth at 10 µM (A498) was 84.4% and the growth at 10 µM (MDA-MB-231) was 76.3%. The growth at 10 µM [13] was 75.9%, the growth at 10 µM [14] was 90.2% and the growth at 10 µM (ACHN [15]) was -96%. It also gave a growth at 10 µM (SN12C) of 40.2%.

For O=c1ccc2nc(C(F)(F)F)nn(-c3ccccc3)c-2c1, the growth at 10 µM [1] was -36.6%, the growth at 10 µM (K562) was -35.1% and the growth at 10 µM [2] was -20.5%. For the same compound, the growth at 10 µM (SR) was -11.3%, the growth at 10 µM (A549) was 93% and the growth at 10 µM [3] was 66%. It also gave a growth at 10 µM (NCI-H23) of 67.7%, a growth at 10 µM (NCI-H322M) of 99.8% and a growth at 10 µM [4] of -79.7%. It also gave a growth at 10 µM (HT-29) of -64.3%, a growth at 10 µM [5] of -63.3% and a GI50 (ACHN [16]) of 1170 nM. It also gave a CC50 (ACHN [16]; [20]) of 5130 nM, a TGI (ACHN [16]; read-out: pTGI (converted)) of 2450 nM and a GI50 [17] of 12300 nM. The CC50 [17, 20] was over 100000 nM, the TGI ([17]; read-out: pTGI (converted)) was 81300 nM and the IC50 [6] was 850 nM. It also gave an IC50 (MCF7) of 600 nM, an Activity [7] of -1.55 V and a Ki [18] of 780 nM. For the same compound, the growth at 10 µM [8] was 77.4%, the growth at 10 µM [9] was 86.5% and the growth at 10 µM (U-251) was 69.7%. For the same compound, the growth at 10 µM (Malme-3M) was -41.7%, the growth at 10 µM (SK-MEL-2) was 78.3% and the growth at 10 µM (SK-MEL-28) was 35.7%. The growth at 10 µM (SK-MEL-5) was 32.7%, the growth at 10 µM [10] was 66.4% and the growth at 10 µM [11] was 71.7%. It also gave a growth at 10 µM [12] of -26.1%, a growth at 10 µM (NCI/ADR-RES) of 84% and a growth at 10 µM (A498) of 79.9%. For the same compound, the growth at 10 µM (MDA-MB-231) was 61%, the growth at 10 µM [13] was 74% and the growth at 10 µM [14] was 69.2%. For the same compound, the GI50 [19] was 15500 nM, the CC50 [19, 20] was 57500 nM and the TGI ([19]; read-out: pTGI (converted)) was 29500 nM. For the same compound, the growth at 10 µM (ACHN [15]) was -89% and the growth at 10 µM (SN12C) was 67.9%.
